These are literature values, as cited in the CATMoS acute toxicity set (Mansouri et al. 2021).

What is called LD50 is the dose expected to kill half of the subjects tested.

Where “and” joins values, the source holds several entries; their conditions need not be identical. Equal entries are not always repeated.

A short description of the data set: rat acute oral toxicity. To be noted: in vivo.
Regarding `CCOC(=O)[C@H](CCc1ccccc1)N[C@@H](C)C(=O)N(CC(=O)O)C1Cc2ccccc2C1`, the LD50 is 8260 mg/kg.
Take `C=CC(=O)OCCN(CC)CC`: the LD50 is 770 mg/kg.
For `CCC1(c2cccc(O)c2)CCCCN(C)C1` (stereo unspecified), the LD50 is 1260 mg/kg.
Turning to `CCSC(=O)NC1CCCCC1`, the LD50 was 2300 mg/kg.
For `CCOP(=S)(OCC)Oc1ccc2c(C)cc(=O)oc2c1`, the LD50 was 14.7 mg/kg.
Take `O=C(OOC(=O)c1ccccc1)c1ccccc1`: the LD50 is 7710 mg/kg.
Turning to `CC(C)=C1CCC(C)CC1=O` (stereo unspecified), the 50% lethal dose (LD50) is 470 mg/kg.
As to `C=CCCC(=O)O`, the LD50 is 470 mg/kg.
Take `Clc1cc2c(cc1Cl)Oc1c(Cl)c(Cl)c(Cl)c(Cl)c1O2`: the LD50 was 0.887 mg/kg.
For `Cc1cccc(C)c1N`, the median lethal dose (LD50) is 2040 mg/kg.
Consider `O=COCCOC=O`, for which the LD50 was 1510 mg/kg.
For the compound `C=CC[C@@H]1C=C(C)C[C@H](C)C[C@H](OC)[C@H]2O[C@@](O)(C(=O)C(=O)N3CCCC[C@H]3C(=O)O[C@H](C(C)=C[C@@H]3CC[C@@H](O)[C@H](OC)C3)[C@H](C)[C@@H](O)CC1=O)[C@H](C)C[C@@H]2OC`, the LD50 was 134 mg/kg.
For the compound `CCNc1nc(NC(C)(C)C)nc(OC)n1`, the LD50 was 433 mg/kg.
For the compound `CC(C)OC(=O)C(C(=O)OC(C)C)=C1SC=CS1`, the LD50 was 2060 mg/kg.
On to `CCNc1ccc(C(=C2C=CC(=[N+](C)C)C=C2)c2ccc(N(C)C)cc2)c2ccccc12`, for which the LD50 was 960 mg/kg.
Turning to `O=S(=O)(O)c1ccccc1`, the LD50 is 2050 mg/kg.
Consider `CN(C)CCOc1ccc(/C(=C(/CCCl)c2ccccc2)c2ccccc2)cc1`, for which the LD50 is 1700 mg/kg and 3000 mg/kg.
As for `C1COCCO1`, the LD50 was 4200 mg/kg.
For `C=CCOC(=O)CC#N`, the LD50 was 160 mg/kg.
Consider `CC1CC(C)(O)CC(C(O)CC2CC(=O)NC(=O)C2)C1=O` (stereo unspecified), for which the LD50 is 3 mg/kg.
With `CCCCn1c(=O)n(CCC)c(=O)c2c(NC)n(C(=O)OC)nc21`, the LD50 is 2380 mg/kg.
As for `CCC1CCC(CC)O1` (stereo unspecified), the median lethal dose (LD50) is 3400 mg/kg.
With `NC1=NCC2c3ccccc3Cc3ccccc3N12` (stereo unspecified), the LD50 is 192 mg/kg.
For `CC(C)(C)/N=C(\NC#N)Nc1cccnc1`, the LD50 was 278 mg/kg.
Regarding `O=C1CCc2cc(CCCN3CCN(c4ccccc4)CC3)ccc2N1`, the LD50 was 500 mg/kg.
For `Cc1c(Cl)c(=O)oc2cc(OP(=O)(OCCCCl)OCCCCl)ccc12`, the LD50 is 211 mg/kg.
For `CCCCN(C=O)CCCC`, the LD50 is 620 mg/kg.
Turning to `CC1C(=O)OC2CCN3CC=C(COC(=O)C(C)(O)C1(C)O)C23` (stereo unspecified), the median lethal dose (LD50) is 45.5 mg/kg.
On to `O=C1CSC(=S)N1`, for which the 50% lethal dose (LD50) is 320 mg/kg.
With `CC(=O)N1CCN(c2ccc(OC[C@H]3CO[C@](Cn4ccnc4)(c4ccc(Cl)cc4Cl)O3)cc2)CC1`, the LD50 is 166 mg/kg.
Take `C=COCCOC(=O)C(=C)C`: the LD50 is 5940 mg/kg.
Consider `CC(C=O)=Cc1ccco1`, for which the LD50 was 1400 mg/kg.
In the case of `CC(CCCCCCCCCCCCCCCCC(=O)O)N(C)Cc1cc(C(C)N(C)CCCCCCCCCCCCCCCCCC(=O)O)cc(C(C)N(C)CCCCCCCCCCCCCCCCCC(=O)O)c1O` (stereo unspecified), the median lethal dose (LD50) is 11800 mg/kg.
For the compound `Cc1cc(CC(C)CC(C)(C)C)oc(=O)c1` (stereo unspecified), the LD50 was 1480 mg/kg.
For the compound `CN(C)CCCNC1=C2C(=CC=CC2[N+](=O)[O-])N(O)c2ccccc21` (stereo unspecified), the LD50 is 110 mg/kg.
As to `COC1(C)CC(c2ccccc2)c2c(c3ccccc3oc2=O)O1` (stereo unspecified), the LD50 is 4000 mg/kg.
`Cc1c(Cl)c(=O)oc2cc(OP(=O)(OCC(C)Cl)OCC(C)Cl)ccc12` (stereo unspecified): the LD50 was 686 mg/kg.
Consider `O=C1CCCCCCCC(=O)OCCO1`, for which the LD50 is 9200 mg/kg.
For the compound `CCN(CCCCOC(=O)c1ccc(OC)c(OC)c1)C(C)Cc1ccc(OC)cc1` (stereo unspecified), the LD50 is 1540 mg/kg.
In the case of `S=C(NC1CCCCC1)NC1CCCCC1`, the LD50 was 500 mg/kg.
With `COc1cc(C#N)ccc1OP(=S)(OC)OC`, the LD50 was 2710 mg/kg.
Regarding `CCCOC(=O)CC(SP(=S)(OC)OC)C(=O)OCCC` (stereo unspecified), the median lethal dose (LD50) is 6000 mg/kg.
As for `CC1CN(CCCCCCCCNC(=O)Oc2ccc3c(c2)C2(C)CCN(C)C2N3C)CC(C)O1` (stereo unspecified), the LD50 was 56 mg/kg.
Consider `CCOC(=S)SSSSC(=S)OCC`, for which the LD50 is 275 mg/kg.
`Oc1c(I)cc(I)c(O)c1I`: the LD50 is 8200 mg/kg.
Regarding `O=Cc1ccccc1-c1ccccc1C=O`, the LD50 was 2830 mg/kg.
For `O=NN(CC(F)(F)F)CC(F)(F)F`, the LD50 is 300 mg/kg.
Regarding `CC(=O)OCCN(CCC#N)c1ccccc1`, the LD50 was 2070 mg/kg.
With `CC(O)C(c1ccccc1)N1CCN(CCOc2ccccc2)CC1` (stereo unspecified), the LD50 was 250 mg/kg.
In the case of `CCOC1CCCCC1O` (stereo unspecified), the LD50 is 804 mg/kg.
As for `COc1cc(C)nc(-n2nc(C)cc2OC)n1`, the LD50 was 445 mg/kg.
`O=[N+]([O-])C=C1SCCN1Cc1ccccc1`: the LD50 is 1000 mg/kg.
On to `CN1CCN(N=O)CC1`, for which the 50% lethal dose (LD50) is 100 mg/kg.
Take `O=C(O)Cc1ccc(C2CCCCC2)c(Cl)c1`: the LD50 was 83 mg/kg.
As for `Clc1ccccc1C(c1ccccc1)(c1ccccc1)n1ccnc1`, the 50% lethal dose (LD50) is 708 mg/kg.
Regarding `CCN(CC)CCOC(=O)c1ccc(NCc2c(CO)cnc(C)c2O)cc1`, the median lethal dose (LD50) is 5900 mg/kg.
On to `OCC(O)C1CC=CCC1` (stereo unspecified), for which the LD50 was 1070 mg/kg.
Regarding `CCN(CC)C(=S)Sc1nc2ccccc2s1`, the median lethal dose (LD50) is 6000 mg/kg.
As for `O=C(CO)c1coc(=O)c2c(O)cccc12`, the LD50 was 250 mg/kg.
On to `CCCCC(CC)CCC(CCC(CC)CC)OS(=O)(=O)O` (stereo unspecified), for which the LD50 was 1430 mg/kg.
As to `CC=Cc1ccc(O)c(OC)c1`, the LD50 was 1560 mg/kg.
